Data from patent US20060235006A1, “Combinations, methods and compositions for treating cancer” (priority 2005, published 2006).

Legend:
K562 cells [1] = assay: Cytotoxicity of dasatinib in proliferating vs quiescent K562 cells (FIG. 3); type: cell-based; conditions: Homo sapiens
quiescent K562 cultures = conditions: concentrations readily achievable in the clinic
K562 cells [2] = assay: cells; conditions: Homo sapiens, colony formation

With `Cc1nc(Nc2ncc(C(=O)Nc3c(C)cccc3Cl)s2)cc(N2CCN(CCO)CC2)n1` [dasatinib, ′N-(2-Chloro-6-methylphenyl)-2-[[6-[4-(2-hydroxyethyl)-1-piperazinyl]-2-methyl-4-pyrimidinyl]amino]-5-thiazolecarboxamide] the IC50 (K562 cells [1]; K562, proliferating K562 cells (FIG. 3)) was 0.69 nM, the IC50 (K562 cells [1]; K562, quiescent K562 cells (FIG. 3)) was > 11.2 nM and the “% cell kill” value (quiescent K562 cultures) was 0%. For the same molecule, the IC50 (K562 cells [2]; K562, proliferating K562 cells) was < 1 nM and the IC50 (K562 cells [2]; K562, quiescent K562 cultures (nutrient depletion)) was > 12 nM.
